In ChEMBL document CHEMBL5137014, “Insight on pyrimido[5,4-g]indolizine and pyrimido[4,5-c]pyrrolo[1,2-a]azepine systems as promising photosensitizers on malignant cells” (Eur J Med Chem, 2022):
Calls of active or inactive are those of the source. The rule behind the calls is not given here.

Columns and labels:
MDA-MB-231 [1] = assay: Dark toxicity against human MDA-MB-231 cells assessed as cell viability after 72 hrs by MTT assay; format: functional, cell-based; conditions: MDA-MB-231, 72 h
[2] = Selectivity index, ratio of IC50 for dark toxicity against human MDA-MB-231 cells to IC50 for phototoxicity against human MDA-MB-231 cells irradiated with 2 J/cm^2 of light dose; format: cell-based; conditions: read-out: Ratio IC50
MDA-MB-231 [3] = assay: Phototoxicity against human MDA-MB-231 cells assessed as cell viability incubated for 1 hr followed by irradiated with 2 J/cm^2 of light dose measured after 72 hrs by MTT assay; format: functional, cell-based; conditions: MDA-MB-231, light or radiation study
DNA [4] = assay: Induction of DNA damage in Escherichia coli pBR322 DNA assessed as open circular DNA irradiated with 7.5 J/cm^2 UV light dose relative to control; format: nucleic-acid assay
DNA [5] = assay: Induction of DNA damage in Escherichia coli pBR322 DNA assessed as supercoiled DNA irradiated with 15 J/cm^2 UV light dose relative to control; format: nucleic-acid assay
DNA [6] = assay: Induction of DNA damage in Escherichia coli pBR322 DNA assessed as supercoiled DNA relative to control; format: nucleic-acid assay
[7] = Induction of superoxide anion generation irradiated with 560 nm LED light; format: functional
DNA [8] = assay: Induction of DNA damage in Escherichia coli pBR322 DNA assessed as supercoiled DNA irradiated with 7.5 J/cm^2 UV light dose relative to control; format: nucleic-acid assay
DNA [9] = assay: Induction of DNA damage in Escherichia coli pBR322 DNA assessed as open circular DNA relative to control; format: nucleic-acid assay
DNA [10] = assay: Induction of DNA damage in Escherichia coli pBR322 DNA assessed as open circular DNA irradiated with 15 J/cm^2 UV light dose relative to control; format: nucleic-acid assay
HCC1954 = assay: Phototoxicity against human HCC1954 cells assessed as cell viability incubated for 1 hr followed by irradiated with 2 J/cm^2 of light dose measured after 24 hrs by resazurin assay; format: functional, cell-based; conditions: HCC1954, light or radiation study
[11] = Induction of singlet oxygen in phosphate buffer assessed as RNO bleaching at pH 7.3 irradiated with 440 nm LED light by spectrophotometry; format: functional
MDA-MB-231 [12] = assay: Induction of reactive oxygen species production in human MDA-MB-231 cells assessed as increase in hydrogen peroxide production incubated for 1 hr followed by irradiated with 2 J/cm^2 of light dose by CM-H2DCFDA dye based fluorescence assay; format: functional, cell-based
T-24 [13] = assay: Phototoxicity against human T24 cells assessed as cell viability incubated for 1 hr followed by irradiated with 2 J/cm^2 of light dose measured after 24 hrs by resazurin assay; format: functional, cell-based; conditions: T-24, light or radiation study
MDA-MB-231 [14] = assay: Induction of apoptosis in human MDA-MB-231 cells assessed as pyknotic nuclei at IC50 measured after 24 hrs by Hoechst staining based microscopic analysis; format: functional
MDA-MB-231 [15] = assay: Induction of apoptosis in human MDA-MB-231 cells assessed as chromatin condensation and fragmentation at IC50 measured after 24 hrs by Hoechst staining based microscopic analysis; format: functional
T-24 [16] = assay: Induction of apoptosis in human T24 cells assessed as apoptotic cells at IC50 followed by irradiated with 2 J/cm^2 of light dose after 24 hrs annexin-V-PI staining based flow cytometry; format: functional, cell-based
T-24 [17] = assay: Induction of apoptosis in human T24 cells assessed as necrotic cells at IC50 followed by irradiated with 2 J/cm^2 of light dose after 24 hrs annexin-V-PI staining based flow cytometry; format: functional, cell-based
MDA-MB-231 [18] = assay: Induction of reactive oxygen species production in human MDA-MB-231 cells assessed as decrease in thiol formation incubated for 1 hr followed by irradiated with 2 J/cm^2 of light dose after 24 hrs by DTNB assay; format: functional, cell-based; conditions: time 25.0 hrs, TDE = time-dependent effect

Row | Compound | IC50 (MDA-MB-231 [1]) [µM] | selectivity ratio [2] | IC50 (MDA-MB-231 [3]) [µM] | also measured
1 | CC(C)OC(=O)c1ccc2n1CCCc1cnc(N)nc1-2 | 5.87 | 1 | 5.76 | –
2 | CC(C)OC(=O)c1ccc2n1CCCc1cnc(Nc3ccccc3)nc1-2 | > 50 | > 3.5 | 14.3 | –
3 | CC(=O)Nc1ncc2c(n1)-c1ccc(C(=O)OC(C)C)n1CCC2 | > 50 | > 2.9 | 17.2 | –
4 | CCOC(=O)c1ccc2n1CCc1cnc(NC3CCCC3)nc1-2 | > 50 | – | > 50 | –
5 | CC(C)OC(=O)c1ccc2n1CCCc1cnc(NC3CCCCC3)nc1-2 | > 50 | > 13.3 | 3.75 | Activity (DNA [4]): 49.5%; Activity (DNA [5]): 50.1%; Activity (DNA [6]): 61.5%; Activity [7]: Active; Activity (DNA [8]): 50.5%; Activity (DNA [9]): 38.5%; Activity (DNA [10]): 49.9%
6 | CCOC(=O)c1ccc2n1CCCc1cnc(NC3CCCCC3)nc1-2 | 5.44 | 12.1 | 0.45 | IC50 (HCC1954): 1.5 µM; Activity (DNA [4]): 23.9%; Activity [11]: Active; Activity (DNA [5]): 74.7%; Activity (DNA [6]): 86.2%; Activity [7]: Active; Activity (DNA [8]): 76.1%; Activity (MDA-MB-231 [12]): Active; IC50 (T-24 [13]): 0.9 µM; Activity (MDA-MB-231 [14]): 61.5%; Activity (MDA-MB-231 [15]): 81.3%; Activity (T-24 [16]): Active; Activity (DNA [9]): 13.8%; Activity (DNA [10]): 25.3%; Activity (T-24 [17]): Active; Activity (MDA-MB-231 [18]): Tde
7 | CC(C)OC(=O)c1ccc2n1CCc1cnc(NC3CCCC3)nc1-2 | > 50 | > 3.7 | 13.4 | –
8 | c1ccc(Nc2ncc3c(n2)-c2cccn2CC3)cc1 | > 50 | > 9 | 5.55 | –
9 | Nc1ncc2c(n1)-c1cccn1CC2 | > 50 | > 7.3 | 6.81 | –
10 | CC(=O)Nc1ncc2c(n1)-c1ccc(C(=O)OC(C)C)n1CC2 | > 50 | > 3.8 | 13.1 | –
11 | CCOC(=O)c1ccc2n1CCCc1cnc(N)nc1-2 | > 50 | – | > 50 | –
12 | CC(C)OC(=O)c1ccc2n1CCCc1cnc(NC3CCCC3)nc1-2 | > 50 | > 8.7 | 5.76 | –
13 | CCOC(=O)c1ccc2n1CCc1cnc(NC3CCCCC3)nc1-2 | 1.74 | 2.1 | 0.82 | IC50 (HCC1954): 0.9 µM; Activity (DNA [4]): 21.6%; Activity [11]: Active; Activity (DNA [5]): 83.5%; Activity (DNA [6]): 83.4%; Activity [7]: Active; Activity (DNA [8]): 78.4%; Activity (MDA-MB-231 [12]): Active; IC50 (T-24 [13]): 0.96 µM; Activity (MDA-MB-231 [14]): 86.2%; Activity (MDA-MB-231 [15]): 83.4%; Activity (T-24 [16]): Active; Activity (DNA [9]): 16.6%; Activity (DNA [10]): 16.5%; Activity (T-24 [17]): Active; Activity (MDA-MB-231 [18]): Tde
14 | CC(C)OC(=O)c1ccc2n1CCc1cnc(N)nc1-2 | 11.9 | 0.8 | 14.5 | –
15 | c1cc2n(c1)CCc1cnc(NC3CCCC3)nc1-2 | 0.91 | 1.1 | 0.86 | –
16 | CCOC(=O)c1ccc2n1CCc1cnc(NC(C)=O)nc1-2 | > 6.25 | > 7 | 0.9 | –
17 | CCOC(=O)c1ccc2n1CCCc1cnc(NC(C)=O)nc1-2 | 27.9 | 19.1 | 1.46 | –
18 | CC(C)OC(=O)c1ccc2n1CCc1cnc(NC3CCCCC3)nc1-2 | > 50 | > 4 | 12.5 | Activity (DNA [4]): 40.3%; Activity (DNA [5]): 36.6%; Activity (DNA [6]): 81.3%; Activity [7]: Active; Activity (DNA [8]): 59.7%; Activity (DNA [9]): 18.7%; Activity (DNA [10]): 63.4%
19 | CC(C)OC(=O)c1ccc2n1CCc1cnc(Nc3ccccc3)nc1-2 | > 50 | – | > 50 | –
20 | CCOC(=O)c1ccc2n1CCCc1cnc(NC3CCCC3)nc1-2 | 1.41 | 1.5 | 0.9 | –
21 | c1cc2n(c1)CCc1cnc(NC3CCCCC3)nc1-2 | > 50 | > 16.7 | 3 | –
22 | CC(=O)Nc1ncc2c(n1)-c1cccn1CC2 | > 50 | > 3.4 | 14.8 | –
23 | CCOC(=O)c1ccc2n1CCCc1cnc(Nc3ccccc3)nc1-2 | > 50 | > 9.2 | 5.45 | –
